In US8546405B2, “Anti-viral compounds” (Abbott Laboratories, priority 2008, dated 2013):
pIC50: −log10 of the molar value.

Test system: replicon 1b-Con1
Assay: HCV subgenomic replicon luciferase reporter assay, replicon 1b-Con1
Type: cell-based, Hepatitis C virus (HCV) genotype 1b-Con1
Details: Hepatitis C virus; for IC50: same test, cell prints lower limit in nM and upper limit in μM; for pIC50: 72 h, stable subgenomic replicon cell line, luciferase reporter, three days incubation, values given as ranges or bound

Structure (SMILES)	IC50 [nM]	pIC50
CC(C)c1ccc2c(Nc3cccc(C(=O)Nc4ccc(Sc5ccc(N)cc5)c(Nc5ncnc6nc(C(C)C)ccc56)c4)c3)ncnc2n1 [Example 7, N-(4-(4-aminophenylthio)-3-(7-isopropylpyrido[2,3-d]pyrimidin-4-ylamino)phenyl)-3-(7-isopropylpyrido[2,3-d]pyrimidin-4-ylamino)benzamide]	100 to 10000	–
CC(C)c1ccc2c(Nc3cc(CN(Cc4ccc(Sc5ccc(N)cc5)c(Nc5ncnc6nc(C(C)C)ccc56)c4)C(C)C)ccc3Sc3ccc(N)cc3)ncnc2n1 [Example 24]	–	8.00 to 10.00
CC(C)c1ccc2c(Nc3cc(C(=O)NCCNC(=O)c4ccc(Sc5ccccc5)c(Nc5ncnc6nc(C(C)C)ccc56)c4)ccc3Sc3ccccc3)ncnc2n1 [Example 10]	100 to 10000	–
CC(C)c1ccc2c(Nc3cc(C#Cc4ccc(Sc5ccc(OCc6ccccc6)cc5)c(Nc5ncnc6nc(C(C)C)ccc56)c4)ccc3Sc3ccc(OCc4ccccc4)cc3)ncnc2n1 [Example 26]	–	8.00 to 10.00
Cc1ccc2c(Nc3cc(C#Cc4ccc(Sc5ccc(F)cc5)c(Nc5ccnc6nc(C)ccc56)c4)ccc3Sc3ccc(F)cc3)ccnc2n1 [Example 22]	–	7.00 to 8.00
CC(C)c1ccc2c(Nc3cc(C#Cc4ccc(Oc5ccc(N)cc5)c(Nc5ncnc6nc(C(C)C)ccc56)c4)ccc3Oc3ccc(N)cc3)ncnc2n1 [Example 20]	–	8.00 to 10.00
CC(C)c1ccc2c(Nc3cc(C(=O)N4CCN(C(=O)c5ccc(Sc6ccc(N)cc6)c(Nc6ncnc7nc(C(C)C)ccc67)c5)CC4)ccc3Sc3ccc(N)cc3)ncnc2n1 [Example 6, piperazine-1,4-diylbis((4-(4-aminophenylthio)-3-(7-isopropylpyrido[2,3-d]pyrimidin-4-ylamino)phenyl)methanone)]	–	8.00 to 10.00
CC(C)c1ccc2c(Nc3cc(NC(=O)Nc4ccc(Sc5ccc(N)cc5)c(Nc5ncnc6nc(C(C)C)ccc56)c4)ccc3Sc3ccc(N)cc3)ncnc2n1 [Example 3, 1,3-bis(4-(4-aminophenylthio)-3-(7-isopropylpyrido[2,3-d]pyrimidin-4-ylamino)phenyl)urea]	–	7.00 to 8.00
CC(C)c1ccc2c(Nc3cc(C#Cc4ccc(Sc5cccc(N)c5)c(Nc5ncnc6nc(C(C)C)ccc56)c4)ccc3Sc3cccc(N)c3)ncnc2n1 [Example 19]	–	8.00 to 10.00
CC(C)c1ccc2c(Nc3cc(-c4ccc(-c5ccc(Sc6ccc(N)cc6)c(Nc6ncnc7nc(C(C)C)ccc67)c5)nc4)ccc3Sc3ccc(N)cc3)ncnc2n1 [Example 12]	–	8.00 to 10.00
CC(C)c1ccc2c(Nc3cc(C#Cc4ccc(Oc5ccc(O)cc5)c(Nc5ncnc6nc(C(C)C)ccc56)c4)ccc3Oc3ccc(O)cc3)ncnc2n1 [Example 25]	–	8.00 to 10.00
CC(C)c1ccc2c(Nc3cc(C#Cc4ccc(Sc5ccc(N(C)C)cc5)c(Nc5ncnc6nc(C(C)C)ccc56)c4)ccc3Sc3ccc(N(C)C)cc3)ncnc2n1 [Example 16]	–	8.00 to 10.00
COc1ccc(CN(Cc2ccc(Sc3ccc(N)cc3)c(Nc3ncnc4nc(C(C)C)ccc34)c2)Cc2ccc(Sc3ccc(N)cc3)c(Nc3ncnc4nc(C(C)C)ccc34)c2)c(OC)c1 [Example 11]	–	8.00 to 10.00
CC(C)c1ccc2c(Nc3cc(NC(=O)c4ccc(Sc5ccc(N)cc5)c(Nc5ncnc6nc(C(C)C)ccc56)c4)ccc3Sc3ccc(N)cc3)ncnc2n1 [Example 2, 4-(4-aminophenylthio)-N-(4-(4-aminophenylthio)-3-(7-isopropylpyrido[2,3-d]pyrimidin-4-ylamino)phenyl)-3-(7-isopropylpyrido[2,3-d]pyrimidin-4-ylamino)benzamide]	–	8.00 to 10.00
CC(C)c1ccc2c(Nc3cc(C(=O)NCCNC(=O)c4ccc(Sc5ccc(N)cc5)c(Nc5ncnc6nc(C(C)C)ccc56)c4)ccc3Sc3ccc(N)cc3)ncnc2n1 [Example 5, N,N′-(ethane-1,2-diyl)bis(4-(4-aminophenylthio)-3-(7-isopropylpyrido[2,3-d]pyrimidin-4-ylamino)benzamide)]	–	8.00 to 10.00
CC(C)c1ccc2c(Nc3cc(C#Cc4ccc(Sc5ccc(N)cc5)c(Nc5ncnc6nc(C(C)C)ccc56)c4)ccc3Sc3ccc(N)cc3)ncnc2n1 [Example 8, N,N′-(5,5′-(ethyne-1,2-diyl)bis(2-(4-aminophenylthio)-5,1-phenylene))bis(7-isopropylpyrido[2,3-d]pyrimidin-4-amine)]	–	> 10.00
CC(C)c1ccc2c(Nc3cc(C#Cc4ccc(Sc5ccc(F)cc5)c(Nc5ncnc6nc(C(C)C)ccc56)c4)ccc3Sc3ccc(F)cc3)ncnc2n1 [Example 14]	–	8.00 to 10.00
CC(C)c1ccc2c(Nc3cc(-c4ccc(-c5ccc(Sc6ccc(N)cc6)c(Nc6ncnc7nc(C(C)C)ccc67)c5)cc4)ccc3Sc3ccc(N)cc3)ncnc2n1 [Example 4, 4,4″-(4-amino-phenylsulfanyl)-N*3*,N*3″*-(7-isopropylpyrido[2,3-d]pyrimidin-4-yl)-[1,1′;4′,1″]terphenyl-3,3″-diamine]	–	8.00 to 10.00
Cc1ccc2c(Nc3cc(C#Cc4ccc(Sc5ccc(N)cc5)c(Nc5ncnc6nc(C)ccc56)c4)ccc3Sc3ccc(N)cc3)ncnc2n1 [Example 21]	–	8.00 to 10.00
CC(C)c1ccc2c(Nc3cc(C#Cc4ccc(Oc5ccccc5)c(Nc5ncnc6nc(C(C)C)ccc56)c4)ccc3Oc3ccccc3)ncnc2n1 [Example 17]	–	8.00 to 10.00
COc1ccc(Sc2ccc(CN(Cc3ccc(Sc4ccc(OC)cc4)c(Nc4ccnc5nc(C)ccc45)c3)C(C)C)cc2Nc2ccnc3nc(C)ccc23)cc1 [Example 28]	–	7.00 to 8.00
CC(C)c1ccc2c(Nc3cc(C#Cc4ccc(Sc5ccccc5)c(Nc5ncnc6nc(C(C)C)ccc56)c4)ccc3Sc3ccccc3)ncnc2n1 [Example 15]	–	8.00 to 10.00
Cc1ccc2c(Nc3cc(-c4ccc(-c5ccc(Sc6ccc(N)cc6)c(Nc6ncnc7nc(C)ccc67)c5)cc4)ccc3Sc3ccc(N)cc3)ncnc2n1 [Example 13]	–	8.00 to 10.00
CC(C)c1ccc2c(Nc3cc(CN(Cc4ccc(Sc5ccc(N)cc5)c(Nc5ncnc6nc(C(C)C)ccc56)c4)c4ccccc4)ccc3Sc3ccc(N)cc3)ncnc2n1 [Example 9]	–	> 10.00
CC(C)c1ccc2c(Nc3cc(C#Cc4ccc(Oc5ccc(CO)cc5)c(Nc5ncnc6nc(C(C)C)ccc56)c4)ccc3Oc3ccc(CO)cc3)ncnc2n1 [Example 23]	–	8.00 to 10.00
CC(C)c1ccc2c(Nc3cc(C(=O)NNC(=O)c4ccc(Sc5ccc(N)cc5)c(Nc5ncnc6nc(C(C)C)ccc56)c4)ccc3Sc3ccc(N)cc3)ncnc2n1 [Example 1, 4-(4-aminophenylthio)-N′-(4-(4-aminophenylthio)-3-(7-isopropylpyrido[2,3-d]pyrimidin-4-ylamino)benzoyl)-3-(7-isopropylpyrido[2,3-d]pyrimidin-4-ylamino)benzohydrazide]	–	8.00 to 10.00
CC(C)c1ccc2c(Nc3cc(C#Cc4ccc(Sc5ccc(O)cc5)c(Nc5ncnc6nc(C(C)C)ccc56)c4)ccc3Sc3ccc(O)cc3)ncnc2n1 [Example 18]	–	8.00 to 10.00
